Test results reported in patent US20060276372A1, “Carotenoids, carotenoid analogs, or carotenoid derivatives for the treatment of proliferative disorders” (priority 2005, published 2006).
Read-outs that look alike come from different tables or passages of the source.

Legend:
10T1/2 cells [1] = assay: Gap junctional communication, scrape-loading dye transfer assay; type: cell-based, Mouse; conditions: 7 days
Method: Gap junctional communication assay. Junctional permeability was assayed by the scrape-loading dye transfer assay essentially as described in El-Fouly et al., 1987, which is incorporated herein by reference. Briefly, confluent cultures of 10T1/2 cells grown in 60 mm dishes were treated with the indicated compounds for 7 days. The treated cells were washed with Ca^+2-free phosphate-buffered saline (PBS). 1.5 ml of Lucifer Yellow CH (Sigma, St. Louis, Mo.) 0.2% in PBS was then added, and linear cuts were made on the monolayer using a surgical scalpel. The cultures were incubated for 2 minutes at 37° C. then rinsed thoroughly with PBS. The cultures were then fixed with 2 ml of 5% formaldehyde in PBS. Images were digitally quantitated by intensity thresholding using the SigmaScan software program (Jandel Scientific, San Rafael, Calif.).

CX43 protein = CX43 protein expression in 10T1/2 cells by Western blotting (Example 1); type: cell-based, Mouse; conditions: 4 days
Method: Cell lines and culture conditions. Mouse embryonic fibroblast 10T1/2 cells were cultured in Eagle's basal medium with Earle's salts supplemented with 4% fetal calf serum (Atlanta Biologicals, Norcross, Ga.), 25 μg/ml gentamicin sulfate (Sigma, St. Louis, Mo.), and passaged by trypsin/EDTA (Gibco Invitrogen, Carlsbad, Calif.) and maintained at 37° C. in a 5% CO2 atmosphere. The cells were allowed to grow until a monolayer was formed. The confluent cells were treated 7 days after seeding, unless otherwise indicated. dAST was prepared in a formulation of 20% EtOH and sterile water (0.2% final EtOH ) to minimize supramolecular aggregation, and the final concentration of EtOH in culture medium was 0.2%. CTX was dissolved in THF and added to media. TTNPB was dissolved in acetone (Sigma, St. Louis, Mo.) and cultures received a final acetone concentration of 0.1%.
Analysis of CX43 protein expression. Expression of CX43 protein in 10T1/2 cells was assessed by Western blotting. 10T1/2 cell monolayers were treated with the indicated carotenoid derivatives or with retinoids (as a positive control for the modulation of CX43 expression) 7 days after seeding in 100 mm dishes (Fisher Scientific, Pittsburgh, Pa.). Fours days after the drug was added to the cells, the cells were harvested, total cellular protein was isolated and the total protein concentration thereof was determined using a commercially available Protein Assay Reagent kit (Pierce Chemical Co., Rockford, Ill.). 40 μg of total cellular protein was resolved on an SDS-PAGE gel, transferred to a nitrocellulose membrane, and analyzed by Western blotting using the NuPage Western blotting kit (Invitrogen, Carlsbad, Calif.). CX43 was detected using a rabbit polyclonal antibody (Zymed, San Francisco, Calif.) raised against a synthetic polypeptide corresponding to the C-terminal domain common to mouse, human and rat CX43. Equal protein loafing was verified by immunoblotting for GAPDH, the expression of which is unaffected by treatment with retinoids or carotenoids, using a rabbit polyclonal GAPDH antibody was also used (Zymed, San Francisco, Calif.). CX43 and GAPDH immunoreactive bands were visualized by chemiluminescence using an anti-rabbit HRP-conjugated secondary antibody (Pierce Chemical Co., Rockford, Ill.). Images were obtained by exposure to X-ray film as previously described and scanned for digital analysis on the Fluoro-S Imager (Bio-Rad, Richmond, Calif.).

10T1/2 cells [2] = type: cell-based, Mouse; conditions: for % Inhibition of MCA-induced transformation: 4 week period; for Foci/dish (mean Type II + Type III foci, 24 dishes): 4 week period after MCA
Method: Inhibition of MCA-induced neoplastic transformation in 10T1/2 cells. Cells were initiated with methylcholanthrene (MCA) […] (Sigma, St. Louis, Mo.) in acetone for 24 hours. Potential inhibitors of neoplastic transformation were added 7 days after removal of carcinogen as indicated and were renewed weekly by adding fresh medium supplemented with the appropriate drug for four weeks after removal of the carcinogen. The cultures were fixed and stained as described above. A total of 24 dishes of cells were used per treatment group. Type II and III foci were identified and then quantitated as described in Bertram et al., 1990, which is incorporated herein by reference.
Statistical analysis. Transformation data was analyzed by one-tailed, two-sample t-tests that incorporated unequal variances. The scrape-loading data was analyzed by paired t-tests.

CX43 = CX43 plaques by indirect immunofluorescence in 10T1/2 cells; type: cell-based, Mouse; conditions: 4 days
Method: Analysis of CX43 protein by indirect immunofluorescence. Expression and assembly of CX43 into plaques was assessed by immunofluorescence staining essentially as described in Rogers et al, 1990, which is incorporated herein by reference. Briefly, confluent cultures of 10T1/2 cells were grown on Permanox plastic 4-chamber slides (Nalge Nunc International, Naperville, Ill.) and treated for 4 days as described above. Cells were fixed with −20° C. methanol overnight, washed in buffer, blocked in 1% bovine serum albumin (Sigma, St. Louis, Mo.) in PBS, incubated with the rabbit anti-CX43 antibody, and visualized with Alexa568 conjugated anti-rabbit secondary antibody (Molecular Probes, Eugene, Oreg.). Images were acquired with a Zeiss Axioplan microscope and a Roper Scientific cooled CCD camera.

[3] = Determination of aqueous solubility/dispersibility; type: physicochemical
Method: (§1) Determination of aqueous solubility/dispersibility. 30.13 mg of 3 was added to 1 mL of USP-purified water. The sample was rotated for 2 hours, then centrifuged for 5 minutes. After centrifuging, solid was visible in the bottom of the tube. A 125-μL aliquot of the solution was then diluted to 25 mL. The sample was analyzed by UV/Vis spectroscopy at 436 nm, and the absorbance was compared to a standard curve compiled from 4 standards of known concentration. The concentration of the original supernatant was calculated to be 2.85 mg/mL and the absorptivity was 36.94 AU*mL/cm*mg. Slight error may have been introduced by the small size of the original aliquot.
as §1, with “Next, 30.80” for “Determination of aqueous solubility/dispersibility. 30.13”, “9” for “3”, “UViis” for “UV/Vis”, “411” for “436”, “The concentration of the original supernatant was calculated to be 2.85 mg/mL and the absorptivity was 36.94 AU*mL/cm*mg.” left out
Determination of aqueous solubility/dipsersibility of pAST. 23.70 mg of tetrasodium diphosphate astaxanthin was added to 1 ml of USP purified water. The mixture was stirred for 2 hours, and centrifuged for 5 minutes. The solution was diluted in water and analyzed by UV/vis spectroscopy at 480 nm and absorbance was compared to a standard curve compiled from 4 standards of known concentration.

superoxide anion = assay: Direct superoxide anion scavenging by EPR spectroscopy (DEPMPO spin trap), PMA-stimulated isolated human PMNs; type: cell-based
Method: Leukocyte Isolation and Preparation. Human polymorphonuclear leukocytes (PMNs) were isolated from freshly sampled venous blood of a single volunteer by Percoll density gradient centrifugation as described previously. Briefly, each 10 mL of whole blood was mixed with 0.8 mL of 0.1 M EDTA and 25 mL of saline. The diluted blood was then layered over 9 mL of Percoll at a specific density of 1.080 g/mL. After centrifugation at 400×g for 20 min at 20° C., the plasma, mononuclear cell, and Percoll layers were removed. Erythrocytes were subsequently lysed by addition of 18 mL of ice-cold water for 30 s, followed by 2 mL of 10×PIPES buffer (25 mM PIPES, 110 mM NaCl, and 5 mM KCl, titrated to pH 7.4 with NaOH). Cells were then pelleted at 4° C., the supernatant was decanted, and the procedure was repeated. After the second hypotonic cell lysis, cells were washed twice with PAG buffer [PIPES buffer containing 0.003% human serum albumin (HSA) and 0.1% glucose]. Afterward, PMNs were counted by light microscopy on a hemocytometer. The isolation yielded PMNs with a purity of >95%. The final pellet was then suspended in PAG-CM buffer (PAG buffer with 1 mM CaCl2 and 1 mM MgCl2).
EPR Measurements. All EPR measurements were performed using a Bruker ER 300 EPR spectrometer operating at X-band with a TM110 cavity as previously described. The microwave frequency was measured with a Model 575 microwave counter (EIP Microwave, Inc., San Jose, Calif.). To measure superoxide anion (O2) generation from phorbol-ester (PMA)-stimulated PMNs, EPR spin-trapping studies were performed using the spin trap DEPMPO (Oxis, Portland, Oreg.) at 10 mM. 1×10^6 PMNs were stimulated with PMA (1 ng/mL) and loaded into capillary tubes for EPR measurements. To determine the radical scavenging ability of 3 and 9 in aqueous and ethanolic formulations, PMNs were pre-incubated for 5 minutes with test compound, followed by PMA stimulation.
Instrument settings used in the spin-trapping experiments were as follows: modulation amplitude, 0.32 G; time constant, 0.16 s; scan time, 60 s; modulation frequency, 100 kHz; microwave power, 20 milliwatts; and microwave frequency, 9.76 GHz. The samples were placed in a quartz EPR flat cell, and spectra were recorded. The component signals in the spectra were identified and quantified as reported previously.

[4] = 0.1 mM in 40% EtOH, sodium salt

CC1=C(/C=C/C(C)=C/C=C/C(C)=C/C=C/C=C(C)/C=C/C=C(C)/C=C/C2=C(C)C(=O)C(OP(=O)([O-])[O-])CC2(C)C)C(C)(C)CC(OP(=O)([O-])[O-])C1=O.[Na+].[Na+].[Na+].[Na+] (stereo not shown) [pAST, tetrasodium diphosphate astaxanthin]
increase of GJIC (dye transfer) over untreated control cultures (10T1/2 cells [1]; 10^−9 M): approximately 4 fold | relative amount of GJIC over concentration range (10T1/2 cells [1]; concentrations ranging from 10^−10 to 10^−6 M): remained constant over a 4-log concentration range | CX43 protein induction versus solvent-treated controls (CX43 protein; 10^−5 M): no change | CX43 protein induction versus solvent-treated controls (CX43 protein; 10^−6 M): about 5 fold | CX43 protein induction versus solvent-treated controls (CX43 protein; 10^−7 M): ~2 fold | cumulative toxicity, monolayer formation (10T1/2 cells [2]; 10^−5 M for 4 weeks): failed to form complete monolayers | neoplastic transformation (10T1/2 cells [2]; 10^−5 M for 4 weeks): strongly inhibited | % Inhibition of MCA-induced transformation (10T1/2 cells [2]; 10^−6 M): 100% | Foci/dish (mean Type II + Type III foci, 24 dishes) (10T1/2 cells [2]; 10^−6 M): No foci | Foci/dish (mean Type II + Type III foci, 24 dishes) (10T1/2 cells [2]; 10^−6 M, listed as drawing 75): 0 foci/dish | % Inhibition of MCA-induced transformation (10T1/2 cells [2]; 10^−7 M): 44% | Foci/dish (mean Type II + Type III foci, 24 dishes) (10T1/2 cells [2]; 10^−7 M): substantially lowered levels of neoplastic transformation | Foci/dish (mean Type II + Type III foci, 24 dishes) (10T1/2 cells [2]; 10^−7 M, listed as drawing 75): 0.91 foci/dish | % Inhibition of MCA-induced transformation (10T1/2 cells [2]; 10^−8 M): 36% | Foci/dish (mean Type II + Type III foci, 24 dishes) (10T1/2 cells [2]; 10^−8 M): substantially lowered levels of neoplastic transformation | Foci/dish (mean Type II + Type III foci, 24 dishes) (10T1/2 cells [2]; 10^−8 M, listed as drawing 75): 1.04 foci/dish | CX43 immunoreactive plaques at regions of cell/cell apposition (CX43; 10^−6 M): increased the prevalence of CX43 immunoreactive plaques | aqueous solubility/dispersibility ([3]; USP-purified water, 2 hours, supernatant by UV/Vis): 25.21 mg/mL

CC1=C(/C=C/C(C)=C/C=C/C(C)=C/C=C/C=C(C)/C=C/C=C(C)/C=C/C2=C(C)C(=O)CCC2(C)C)C(C)(C)CCC1=O [CTX, Canthaxanthin]
increase of dye transfer (10T1/2 cells [1]; 10^−5 M): 4 fold | CX43 protein induction versus solvent-treated controls (CX43 protein; 10^−5 M): ≈ 7 fold | CX43 immunoreactive plaques (CX43; 10^−5 M): roughly equivalent to that achieved in cells treated with pAST at 10^−6 M

C/C(=C\c1ccc(C(=O)O)cc1)c1ccc2c(c1)C(C)(C)CCC2(C)C [TTNPB, tetrahydrotetramethylnaphalenylpropenyl benzoic acid]
increase of dye transfer (10T1/2 cells [1]; 10^−8 M): 6 fold | CX43 protein induction versus solvent-treated controls (CX43 protein; 10^−8 M): about 13 fold | CX43 immunoreactive plaques / gap junction assembly (CX43; 10^−8 M): extensive CX43 immunoreactive plaques

3,3′-Diphosphoryloxy-β,ε-carotene sodium salt [Lutein Diphosphate Sodium Salt]
Mean (% inhibition) of superoxide anion signal (superoxide anion; 0.1 mM in 40% EtOH, listed as disodium diphosphate derivative of natural source lutein, sodium salt): 18% | Mean (% inhibition) of superoxide anion signal (superoxide anion; [4]): 18.0% | Mean (% inhibition) of superoxide anion signal (superoxide anion; 0.1 mM in water, listed as disodium diphosphate derivative of natural source lutein, sodium salt): 0% | Mean (% inhibition) of superoxide anion signal (superoxide anion; 1.0 mM in water): 9.3% | Mean (% inhibition) of superoxide anion signal (superoxide anion; 3.0 mM in water): 72.3% | Mean (% inhibition) of superoxide anion signal (superoxide anion; 5.0 mM in water, listed as disodium diphosphate derivative of natural source lutein, sodium salt): more than 90% | Mean (% inhibition) of superoxide anion signal (superoxide anion; 5.0 mM in water, sodium salt): 91.0%

β,ε-carotenyl 3,3′-disuccinate sodium salt [Lutein Disuccinate Sodium Salt]
Mean (% inhibition) of superoxide anion signal (superoxide anion; 0.1 mM in 40% EtOH, listed as disodium disuccinate derivative of natural source lutein, sodium salt): did not significantly increase scavenging over that provided by the EtOH vehicle alone | Mean (% inhibition) of superoxide anion signal (superoxide anion; [4]): 5.0% | Mean (% inhibition) of superoxide anion signal (superoxide anion; 0.1 mM in water): 0% | Mean (% inhibition) of superoxide anion signal (superoxide anion; 1.0 mM in water): 13.0% | Mean (% inhibition) of superoxide anion signal (superoxide anion; 3.0 mM in water): 61.7% | Mean (% inhibition) of superoxide anion signal (superoxide anion; 5.0 mM in water, listed as disodium disuccinate derivative of natural source lutein, sodium salt): ~75% | Mean (% inhibition) of superoxide anion signal (superoxide anion; 5.0 mM in water, listed as disuccinate lutein sodium salt, sodium salt): 75% | Mean (% inhibition) of superoxide anion signal (superoxide anion; 5.0 mM in water, sodium salt): 74.7% | aqueous solubility/dispersibility [3]: 2.85 mg/mL
